From patent EP0565377B1, “Therapeutic agents for use in the treatment of Parkinson's Disease” (Kyowa Hakko Kogyo Co., Ltd., priority 1992, dated 1993)
Like-named read-outs stand apart in the source and are kept apart here.

Tests used:
dd-strain male mice = experiment: Acute toxicity test (minimum lethal dose, oral); assay type: in vivo; conditions: oral administration, mortality seven days after administration, three mice per group
Experimental: Test compounds were orally administered to groups of dd-strain male mice weighing 20±1 g, each group consisting of three mice. Seven days after the administration, minimum lethal dose (MLD) of each compound was determined by observing the mortality.

[1] = test system: Parkinson's Disease Model in Mouse; experiment: Effect on locomotor activity of Parkinson's disease model in mouse (MPTP-treated mice, Automex-II horizontal activity); assay type: in vivo, male C57BL/6 mice
Experimental: 1-Methyl-4-phenyl-1,2,3,6-tetrahydropyridine (MPTP) causes symptoms of Parkinson's disease in humans [Science, 219, 979 (1983)]. It is reported that an experimental Parkinson's disease model was obtained by administering MPTP to mice [Science, 224, 1451 (1984)]. If a compound is effective on the experimental Parkinson's disease model in mouse, the compound can be expected to have a therapeutic effect on Parkinson's disease.
The experiment was performed by using several groups of 7-weeks-old male C57BL/6 mice (weighing 20 to 21 g, Japan SLC), each group consisting of 8 mice. MPTP (Aldrich Chemical Co., Inc.) dissolved in a physiological saline solution (Otsuka Pharmaceutical Co., Ltd.) was intraperitoneally administered to each mouse once a day for five consecutive days at a dose of 30 mg/kg. A test compound was suspended in injectable distilled water (Otsuka Phamaceutical Co., Ltd.) containing Tween 80 [polyoxyethylene (20) sorbitan monooleate]. L-DOPA (Kyowa Hakko Kogyo Co., Ltd.) was suspended in 0.3% CMC (sodium carboxylmethylcellulose). Thirty minutes after the final MPTP administration, the test compound suspensions and the control suspension [injectable distilled water (Otsuka Pharmaceutical Co., Ltd.) containing Tween 80] containing no test compound were orally administered to separate groups of the mice (0.1 ml per 10 g of body weight). The amount of active movements (horizontal activity) of each mouse was measured by using Automex-II (Columbus Instruments International Corp.) for the period of 30 minutes starting 30 minutes after the administration of the test compound. The effect of the compounds was evaluated by comparing the average counts of the active movements of the test compound-administered groups with those of the control groups. A significant difference test was performed by using Student's t-test.

[2] = test system: Haloperidol-Induced Catalepsy; experiment: Effect on haloperidol-induced catalepsy; assay type: in vivo, male ddY mice; conditions: test compound 10 mg/kg orally; for inhibition in vivo at 10 mg/kg: Mus musculus, po, 1 h, rate of decrease in total score based on control group, read-out: Remission Rate (%); for Number of the Animals Showing Remission: of 5 mice, catalepsy score not more than 4 points; for Total Score: total catalepsy score of 5 mice (25 points at the full)
Experimental: The experiment was performed by using several groups of 5-weeks-old male ddY mice (weighing 22 to 24 g, Japan SLC), each group consisting of 5 mice. Haloperidol (Janssen Pharmaceutica) suspended in 0.3% CMC was intraperitoneally administered to each mouse at a dose of 1.0 mg/kg. Test compounds were suspended in 0.3% CMC or in injectable distilled water (Otsuka Pharmaceutical Co., Ltd.) containing Tween 80. L-DOPA (Kyowa Hakko Kogyo Co., Ltd.) and benserazide hydrochloride (Kyowa Hakko Kogyo Co., Ltd.) were suspended in 0.3% CMC. One hour after the haloperidol administration, the test compound suspensions and the control suspension [0.3% CMC or injectable distilled water (Otsuka Pharmaceutical Co., Ltd.) containing Tween 80] containing no test compound were orally administered to separate groups of the mice (0.1 ml per 10 g of body weight). One hour after the administration of the test compound, the forelimbs of each mouse and subsequently the hindlimbs of the same mouse were placed on a 4.5 cm-high, 1.0 cm-wide bar and catalepsy was estimated. All of the test compounds were orally administered at a dose of 10 mg/kg, and L-DOPA (100 mg/kg) and benserazide (25 mg/kg) were intraperitoneally administered together as a control experiment. The catalepsy score and the standard of judgment are shown below.
The effect of the compounds was evaluated by the total of the catalepsy scores of five mice in each group (25 points at the full). The groups wherein the total score was not more than 20 points were estimated to be effective. The number of the animals showing remission against catalepsy is the number of the mice for which the catalepsy score was not more than 4 points.

[3] = Table 3-5, test compound 40 mg/kg orally, normal control 2252 ±210.1, MPTP control 18 ± 8.4
[4] = Table 4-2, 0.3% Tween 80 control 25

Structure (SMILES)	MLD (dd-strain male mice) [mg/kg]	Amount of Active Movements (average count ± S.E.M) [1, 3] [count]	inhibition in vivo at 10 mg/kg ([2]; Table 4-1) [%]	Number of the Animals Showing Remission ([2]; Table 4-1)	Total Score ([2]; Table 4-1, 0.3% CMC control 25) [points]	Amount of Active Movements (average count ± S.E.M) ([1]; Table 3-1, test compound 10 mg/kg orally, 30 min count starting 30 min after dosing, normal control 1875 ± 77.7, MPTP control 207 ± 85.5) [count]	inhibition in vivo at 10 mg/kg ([2]; Table 4-2) [%]	Number of the Animals Showing Remission ([2]; Table 4-2)	Total Score [2, 4] [points]	Amount of Active Movements (average count ± S.E.M) ([1]; Table 3-2, test compound 10 mg/kg orally, normal control 2185 ±156.2, MPTP control 38 ± 24.2) [count]
COc1cc(/C=C/c2nc3c([nH]2)c(=O)n(C)c(=O)n3C)cc(OC)c1OC [Compound 10, (E)-8-(3,4,5-trimethoxystyryl)theophylline]	> 300	32 ± 21.2	–	–	–	–	–	–	–	–
COc1cc(/C=C/c2nc3c(c(=O)n(C)c(=O)n3C)n2C)cc(OC)c1OC [Compound 2, (E)-8-(3,4,5-trimethoxystyryl)caffeine]	> 300	–	56	5	11	1134 ±267.0	–	–	–	–
CCCn1c(=O)c2c(nc(/C=C/c3ccc(OCC)cc3)n2C)n(CCC)c1=O [Compound 48, (E)-8-(4-ethoxystyryl)-7-methyl-1,3-dipropylxanthine]	> 100	–	–	–	–	–	76	5	6	–
CCn1c(=O)c2c(nc(/C=C/c3cc(OC)c(OC)c(OC)c3)n2C)n(CC)c1=O [Compound 4, (E)-1,3-diethyl-7-methyl-8-(3,4,5-trimethoxystyryl)xanthine]	> 300	–	20	4	20	–	–	–	–	961 ±164.7
CCCn1c(=O)c2[nH]c(/C=C/c3ccc(OC)cc3OC)nc2n(CCC)c1=O [Compound 24, (E)-8-(2,4-dimethoxystyryl)-1,3-dipropylxanthine]	> 100	–	24	4	19	–	–	–	–	–
CCCCn1c(=O)c2c(nc(/C=C/c3cc(OC)c(OC)c(OC)c3)n2C)n(CCCC)c1=O [Compound 8, (E)-1,3-dibutyl-7-methyl-8-(3,4,5-trimethoxystyryl)xanthine]	> 300	43 ± 28.3	–	–	–	–	–	–	–	–
CCCn1c(=O)c2[nH]c(/C=C/c3cc(Br)c(OC)c(OC)c3)nc2n(CCC)c1=O [Compound 59, (E)-8-(3-bromo-4,5-dimethoxystyryl)-1,3-dipropylxanthine]	> 300	–	–	–	–	–	24	5	19	–
CCCn1c(=O)c2c(nc(/C=C/c3cc(OC)c(OC)c(OC)c3)n2C)n(CCC)c1=O [Compound 5, (E)-7-methyl-1,3-dipropyl-8-(3,4,5-trimethoxystyryl)xanthine]	> 300	–	28	4	18	–	–	–	–	–
CCCn1c(=O)c2c(nc(/C=C/c3cc(OC)c(OC)cc3OC)n2C)n(CCC)c1=O [Compound 23, (E)-7-methyl-1,3-dipropyl-8-(2,4,5-trimethoxystyryl)xanthine]	> 300	–	28	4	18	–	–	–	–	–
CCCn1c(=O)c2c(nc(/C=C/c3ccc(C)c(C)c3)n2C)n(CCC)c1=O [Compound 31, (E)-8-(3,4-dimethylstyryl)-7-methyl-1,3-dipropylxanthine]	> 100	–	–	–	–	–	28	4	18	–
CCCn1c(=O)c2nc(/C=C/c3cc(OC)c(OC)c(OC)c3)[nH]c2n(CCC)c1=O [Compound 9, (E)-1,3-dipropyl-8-(3,4,5-trimethoxystyryl) xanthine]	> 300	41 ± 18.0	–	–	–	–	–	–	–	–
CCCn1c(=O)c2c(nc(/C=C/c3ccc4c(c3)OCO4)n2C)n(CCC)c1=O [Compound 19, (E)-7-methyl-8-(3,4-methylenedioxystyryl)-1,3-dipropylxanthine]	> 300	–	24	3	19	–	–	–	–	–
CCCn1c(=O)c2nc(/C=C/c3ccc(OC)c(OC)c3OC)[nH]c2n(CCC)c1=O [Compound 20, (E)-1,3-dipropyl-8-(2,3,4-trimethoxystyryl)xanthine]	> 300	–	24	3	19	–	–	–	–	–
CCCn1c(=O)c2c(nc(/C=C/c3ccc(OC)cc3)n2C)n(CCC)c1=O [Compound 6, (E)-8-(4-methoxystyryl)-7-methyl-1,3-dipropylxanthine]	> 300	–	24	3	19	–	–	–	–	–
CCCn1c(=O)c2c(nc(/C=C/c3ccc(OC)c(C)c3C)n2C)n(CCC)c1=O [Compound 13, (E)-8-(4-methoxy-2,3-dimethylstyryl)-7-methyl-1,3-dipropylxanthine]	> 300	–	80	5	5	–	–	–	–	–
CCCn1c(=O)c2c(nc(/C=C/c3ccc(O)c(O)c3)n2C)n(CCC)c1=O [Compound 53, (E)-8-(3,4-dihydroxystyryl)-7-methyl-1,3-dipropylxanthine]	> 100	–	–	–	–	–	20	4	20	–
C=CCn1c(=O)c2c(nc(/C=C/c3cc(OC)c(OC)c(OC)c3)n2C)n(CC=C)c1=O [Compound 7, (E)-1,3-diallyl-7-methyl-8-(3,4,5-trimethoxystyryl)xanthine]	> 300	–	48	4	13	–	–	–	–	–
CCCn1c(=O)c2[nH]c(/C=C/c3ccc4c(c3)OCO4)nc2n(CCC)c1=O [Compound 18, (E)-8-(3,4-methylenedioxystyryl)-1,3-dipropylxanthine]	> 300	–	20	4	20	–	–	–	–	–
CCCn1c(=O)c2c(nc(/C=C/c3ccc(OC)cc3OC)n2C)n(CCC)c1=O [Compound 25, (E)-8-(2,4-dimethoxystyryl)-7-methyl-1,3-dipropylxanthine]	> 300	–	–	–	–	–	52	5	12	–
CCCOc1ccc(/C=C/c2nc3c(c(=O)n(CCC)c(=O)n3CCC)n2C)cc1 [Compound 50, (E)-7-methyl-8-(4-propoxystyryl)-1,3-dipropylxanthine]	> 100	–	–	–	–	–	24	3	19	–
CCCn1c(=O)c2c(nc(/C=C/c3ccc(OC)c(C)c3OC)n2C)n(CCC)c1=O [Compound 15, (E)-8-(2,4-dimethoxy-3-methylstyryl)-7-methyl-1,3-dipropylxanthine]	> 300	–	24	4	19	–	–	–	–	–
